What was measured:
IKZF1 = IKZF1 (Homo sapiens (Human), UniProt Q13422+Q96SW2); test: Western blot, substrate protein expression in hPBMC: IKZF1; format: cell-based; conditions: for substrate protein remaining % IKZF1: hPBMC, compound 500 nM, 24 hours, Western blot
Summary of the method: (§1)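 hPBMC, 1×10^6 cells/mL, 24 h compound exposure; RIPA lysis, BCA protein assay, SDS-PAGE, NC membrane immunoblot. Densitometry vs internal control → % protein remaining; degradation % = 100% − remaining; DC50 = conc. at 50% of DMSO band signal.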

[1] = target: human Cereblon WT GST-tagged protein (Homo sapiens (Human), UniProt Q96SW2); test: CRBN-binding affinity, HTRF (CEREBLON BINDING kit, CISBIO); conditions: HTRF inhibitory activity
human Cereblon WT GST-tagged protein, sequence (Q96SW2 whole entry): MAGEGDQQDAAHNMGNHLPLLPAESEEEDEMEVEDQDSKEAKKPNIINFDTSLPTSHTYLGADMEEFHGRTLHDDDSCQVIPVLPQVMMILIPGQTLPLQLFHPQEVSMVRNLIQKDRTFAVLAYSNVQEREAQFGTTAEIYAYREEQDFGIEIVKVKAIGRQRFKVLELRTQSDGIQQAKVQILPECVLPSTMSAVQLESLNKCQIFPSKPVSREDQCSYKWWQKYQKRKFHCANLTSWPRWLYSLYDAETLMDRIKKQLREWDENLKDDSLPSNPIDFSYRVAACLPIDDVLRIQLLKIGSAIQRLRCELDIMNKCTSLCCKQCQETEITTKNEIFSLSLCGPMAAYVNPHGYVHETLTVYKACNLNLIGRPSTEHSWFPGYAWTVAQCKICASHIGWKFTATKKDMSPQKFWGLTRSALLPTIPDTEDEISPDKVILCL
Summary of the method: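 Compounds were mixed with GST-tagged human Cereblon WT protein, then with Thalidomide-Red tracer and GST Eu antibody, and binding was read by HTRF. Inhibition rate was calculated from 620 nm emission relative to blank control wells (no protein) and solvent control wells.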

GSPT1 = GSPT1 (Homo sapiens (Human), UniProt P15170+Q96SW2); test: Western blot, substrate protein expression in hPBMC: GSPT1; format: cell-based; conditions: for substrate protein remaining % GSPT1: hPBMC, compound 500 nM, 24 hours, Western blot; for concentration at which GSPT1 protein was clearly/significantly degraded (Western blot, FIG. 1): hPBMCs
GSPT1, sequence (P15170 whole entry): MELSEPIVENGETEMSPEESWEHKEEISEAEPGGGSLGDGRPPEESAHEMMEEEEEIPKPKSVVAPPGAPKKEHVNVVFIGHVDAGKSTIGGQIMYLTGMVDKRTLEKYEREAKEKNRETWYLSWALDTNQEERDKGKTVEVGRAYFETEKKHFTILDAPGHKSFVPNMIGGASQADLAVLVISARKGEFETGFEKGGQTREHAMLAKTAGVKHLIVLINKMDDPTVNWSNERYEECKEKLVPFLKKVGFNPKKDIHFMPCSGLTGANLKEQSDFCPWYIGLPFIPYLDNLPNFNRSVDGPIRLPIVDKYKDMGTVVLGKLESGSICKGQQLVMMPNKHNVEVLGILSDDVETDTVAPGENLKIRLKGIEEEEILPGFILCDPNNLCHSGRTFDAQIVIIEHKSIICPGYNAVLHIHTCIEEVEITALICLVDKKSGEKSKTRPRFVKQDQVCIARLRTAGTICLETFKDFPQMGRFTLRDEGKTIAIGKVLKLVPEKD
GSPT1, sequence (Q96SW2 whole entry): as the sequence (Q96SW2 whole entry) above
GSPT1, sequence (Q16531 whole entry partner): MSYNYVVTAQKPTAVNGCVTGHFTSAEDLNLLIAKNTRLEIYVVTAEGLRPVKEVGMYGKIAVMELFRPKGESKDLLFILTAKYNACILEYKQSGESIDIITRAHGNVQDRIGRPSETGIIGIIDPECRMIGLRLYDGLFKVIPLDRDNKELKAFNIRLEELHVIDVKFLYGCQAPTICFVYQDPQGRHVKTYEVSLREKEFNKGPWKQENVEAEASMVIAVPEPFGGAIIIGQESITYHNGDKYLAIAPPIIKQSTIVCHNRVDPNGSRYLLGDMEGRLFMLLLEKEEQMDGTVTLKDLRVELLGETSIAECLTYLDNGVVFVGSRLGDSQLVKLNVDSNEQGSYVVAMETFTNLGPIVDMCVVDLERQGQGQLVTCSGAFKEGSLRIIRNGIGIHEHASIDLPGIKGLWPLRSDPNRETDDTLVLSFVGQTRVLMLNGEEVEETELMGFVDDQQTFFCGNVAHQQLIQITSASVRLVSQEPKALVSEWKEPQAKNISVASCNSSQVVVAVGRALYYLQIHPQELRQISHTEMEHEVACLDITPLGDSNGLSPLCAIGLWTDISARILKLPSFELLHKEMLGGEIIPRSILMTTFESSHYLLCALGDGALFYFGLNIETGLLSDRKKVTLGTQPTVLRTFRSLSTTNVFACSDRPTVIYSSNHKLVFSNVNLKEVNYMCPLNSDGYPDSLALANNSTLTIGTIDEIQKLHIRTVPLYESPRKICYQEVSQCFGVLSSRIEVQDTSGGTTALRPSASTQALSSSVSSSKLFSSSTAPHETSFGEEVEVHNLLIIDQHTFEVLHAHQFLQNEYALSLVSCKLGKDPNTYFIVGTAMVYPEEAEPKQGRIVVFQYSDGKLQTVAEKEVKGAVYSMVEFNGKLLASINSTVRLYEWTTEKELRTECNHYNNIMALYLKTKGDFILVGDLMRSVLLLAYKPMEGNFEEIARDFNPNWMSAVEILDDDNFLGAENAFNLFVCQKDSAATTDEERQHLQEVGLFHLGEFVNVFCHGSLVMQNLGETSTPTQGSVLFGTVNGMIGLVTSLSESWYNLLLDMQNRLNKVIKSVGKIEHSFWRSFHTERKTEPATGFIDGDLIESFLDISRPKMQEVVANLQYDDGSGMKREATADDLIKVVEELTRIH
Summary of the method: as §1

IKZF3 = IKZF3 (Homo sapiens (Human), UniProt Q96SW2+Q9UKT9); test: Western blot, substrate protein expression in hPBMC: IKZF3; format: cell-based; conditions: for substrate protein remaining % IKZF3: hPBMC, compound 500 nM, 24 hours, Western blot
IKZF3, sequence (Q9UKT9 whole entry): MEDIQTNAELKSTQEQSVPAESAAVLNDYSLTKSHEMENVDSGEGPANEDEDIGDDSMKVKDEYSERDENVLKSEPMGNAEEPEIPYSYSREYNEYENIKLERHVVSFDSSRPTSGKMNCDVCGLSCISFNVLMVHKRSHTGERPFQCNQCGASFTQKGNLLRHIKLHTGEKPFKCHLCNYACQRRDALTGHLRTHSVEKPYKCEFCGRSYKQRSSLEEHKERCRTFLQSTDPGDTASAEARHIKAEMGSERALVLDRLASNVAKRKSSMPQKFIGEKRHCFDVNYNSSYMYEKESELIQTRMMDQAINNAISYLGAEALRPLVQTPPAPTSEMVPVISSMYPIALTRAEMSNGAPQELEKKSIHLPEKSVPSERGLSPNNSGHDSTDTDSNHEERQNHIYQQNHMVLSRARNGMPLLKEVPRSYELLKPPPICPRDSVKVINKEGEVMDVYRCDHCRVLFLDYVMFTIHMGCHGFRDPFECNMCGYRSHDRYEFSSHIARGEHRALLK
IKZF3, sequence (Q96SW2 whole entry): as the sequence (Q96SW2 whole entry) above
IKZF3, sequence (Q16531 whole entry partner): as the sequence (Q16531 whole entry partner) above
Summary of the method: as §1

IKZF1, sequence (Q13422 whole entry): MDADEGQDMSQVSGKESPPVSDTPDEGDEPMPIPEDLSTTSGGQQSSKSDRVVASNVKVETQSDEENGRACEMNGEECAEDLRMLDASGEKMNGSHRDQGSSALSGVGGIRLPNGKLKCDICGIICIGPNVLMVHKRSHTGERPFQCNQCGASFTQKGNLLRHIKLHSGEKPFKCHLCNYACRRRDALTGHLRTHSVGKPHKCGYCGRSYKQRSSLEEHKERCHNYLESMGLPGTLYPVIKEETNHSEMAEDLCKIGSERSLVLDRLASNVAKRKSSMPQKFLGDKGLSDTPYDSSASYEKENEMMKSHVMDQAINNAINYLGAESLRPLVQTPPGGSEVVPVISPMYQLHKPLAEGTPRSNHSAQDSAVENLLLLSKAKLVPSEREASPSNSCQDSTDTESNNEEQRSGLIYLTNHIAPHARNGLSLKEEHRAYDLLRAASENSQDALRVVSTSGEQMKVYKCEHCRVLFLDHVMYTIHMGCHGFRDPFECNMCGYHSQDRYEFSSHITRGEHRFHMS
IKZF1, sequence (Q96SW2 whole entry): as the sequence (Q96SW2 whole entry) above
IKZF1, sequence (Q16531 whole entry partner): as the sequence (Q16531 whole entry partner) above

SMILES	substrate protein remaining % IKZF1 (IKZF1)	IC50 [1] [nM]	substrate protein remaining % GSPT1 (GSPT1)	substrate protein remaining % IKZF3 (IKZF3)	concentration at which GSPT1 protein was clearly/significantly degraded (Western blot, FIG. 1) (GSPT1)	concentration at which IKZF1 protein was significantly degraded (Western blot, FIG. 1) (IKZF1; hPBMCs)	concentration at which IKZF3 protein was significantly degraded (Western blot, FIG. 1) (IKZF3; hPBMCs)
O=C1CCC(N2Cc3cc(CN4CC5CCC4CN5C(c4ccccc4)c4ccccc4)ccc3C2=O)C(=O)N1 (stereo not drawn) [GT-03993, 3-(5-((5-benzhydryl-2,5-diazabicyclo[2.2.2]octan-2-yl)methyl)-1-oxoisoindolin-2-yl)piperidine-2,6-dione]	B (B represents substrate protein remaining % > 50%)	< 500	A (A represents 0% ≤ substrate protein remaining % ≤ 50%)	A (A represents 0% ≤ substrate protein remaining % ≤ 50%)	–	–	–
O=C1CCC(N2Cc3cc(CN4CCCN(C(c5ccccc5)c5ccccc5)CC4)ccc3C2=O)C(=O)N1 (stereo not drawn) [GT-03994, 3-(5-((4-benzhydryl-1,4-diazepan-1-yl)methyl)-1-oxoisoindolin-2-yl)piperidine-2,6-dione]	B (B represents substrate protein remaining % > 50%)	< 500	A (A represents 0% ≤ substrate protein remaining % ≤ 50%)	B (B represents substrate protein remaining % > 50%)	–	–	–
O=C1CCC(N2Cc3c(ccc(CN4CC5CCC4CN5C(c4ccccc4)c4ccccc4)c3F)C2=O)C(=O)N1 (stereo not drawn) [GT-04163, 3-(5-((5-benzhydryl-2,5-diazabicyclo[2.2.2]octan-2-yl)methyl)-4-fluoro-1-oxoisoindolin-2-yl)piperidine-2,6-dione]	B (B represents substrate protein remaining % > 50%)	500 to 1000	A (A represents 0% ≤ substrate protein remaining % ≤ 50%)	A (A represents 0% ≤ substrate protein remaining % ≤ 50%)	–	–	–
O=C1CCC(N2Cc3c(ccc(CN4CCCN(C(c5ccccc5)c5ccccc5)CC4)c3F)C2=O)C(=O)N1 (stereo not drawn) [GT-04164, 3-(5-((4-benzhydryl-1,4-diazepan-1-yl)methyl)-4-fluoro-1-oxoisoindolin-2-yl)piperidine-2,6-dione]	B (B represents substrate protein remaining % > 50%)	500 to 1000	A (A represents 0% ≤ substrate protein remaining % ≤ 50%)	B (B represents substrate protein remaining % > 50%)	–	–	–
O=C1CCC(N2Cc3cc(CN4CCN(C(c5ccccn5)c5ccccn5)CC4)ccc3C2=O)C(=O)N1 (stereo not drawn) [GT-04383, 3-(5-((4-(di(pyridin-2-yl)methyl)piperazin-1-yl)methyl)-1-oxoisoindolin-2-yl)piperidine-2,6-dione]	B (B represents substrate protein remaining % > 50%)	< 500	A (A represents 0% ≤ substrate protein remaining % ≤ 50%)	B (B represents substrate protein remaining % > 50%)	–	–	–
O=C1CCC(N2Cc3cc(CN4CCN(C(c5ccccn5)c5ccccn5)CC4)c(F)cc3C2=O)C(=O)N1 (stereo not drawn) [GT-04384, 3-(5-((4-(di(pyridin-2-yl)methyl)piperazin-1-yl)methyl)-6-fluoro-1-oxoisoindolin-2-yl)piperidine-2,6-dione]	B (B represents substrate protein remaining % > 50%)	500 to 1000	A (A represents 0% ≤ substrate protein remaining % ≤ 50%)	B (B represents substrate protein remaining % > 50%)	–	–	–
O=C1CCC(N2Cc3c(CN4CCN(C(c5ccccc5)c5ccncc5)CC4)cccc3C2=O)C(=O)N1 (stereo not drawn) [GT-04945, 3-(1-oxo-4-((4-(phenyl(pyridin-4-yl)methyl)piperazin-1-yl)methyl)isoindolin-2-yl)piperidine-2,6-dione]	B (B represents substrate protein remaining % > 50%)	500 to 1000	A (A represents 0% ≤ substrate protein remaining % ≤ 50%)	B (B represents substrate protein remaining % > 50%)	–	–	–
O=C1CCC(N2Cc3c(CN4CCC(N(c5ccccc5)c5ccccn5)CC4)cccc3C2=O)C(=O)N1 (stereo not drawn) [GT-04948, 3-(1-oxo-4-((4-(phenyl(pyridin-2-yl)amino)piperidin-1-yl)methyl)isoindolin-2-yl)piperidine-2,6-dione]	B (B represents substrate protein remaining % > 50%)	500 to 1000	A (A represents 0% ≤ substrate protein remaining % ≤ 50%)	B (B represents substrate protein remaining % > 50%)	< 500 nM	–	–
O=C1CCC(N2Cc3c(CN4CCC(N(c5ccccc5)c5ccccc5)CC4)cccc3C2=O)C(=O)N1 (stereo not drawn) [GT-04992, 3-(4-((4-(diphenylamino)piperidin-1-yl)methyl)-1-oxoisoindolin-2-yl)piperidine-2,6-dione]	B (B represents substrate protein remaining % > 50%)	< 500	A (A represents 0% ≤ substrate protein remaining % ≤ 50%)	B (B represents substrate protein remaining % > 50%)	–	–	–
O=C1CCC(N2Cc3cc(CCCN4CCN(C(c5ccccc5)c5ccccc5)CC4)ccc3C2=O)C(=O)N1 (stereo not drawn) [GT-05688, 3-(5-(3-(4-benzhydrylpiperazin-1-yl)propyl)-1-oxoisoindolin-2-yl)piperidine-2,6-dione]	A (A represents 0% ≤ substrate protein remaining % ≤ 50%)	1000 to 1900	B (B represents substrate protein remaining % > 50%)	A (A represents 0% ≤ substrate protein remaining % ≤ 50%)	–	below 50 nM	below 50 nM
O=C1CCC(N2Cc3cc(C(=O)N4CCN(C(c5ccccc5)c5ccccc5)CC4)ccc3C2=O)C(=O)N1 (stereo not drawn) [GT-05689, 3-(5-(4-benzhydrylpiperazine-1-carbonyl)-1-oxoisoindolin-2-yl)piperidine-2,6-dione]	B (B represents substrate protein remaining % > 50%)	500 to 1000	A (A represents 0% ≤ substrate protein remaining % ≤ 50%)	B (B represents substrate protein remaining % > 50%)	below 50 nM	–	–
O=C1CCC(N2Cc3c(ccc(CN4CCN(C(c5ccccn5)c5ccccn5)CC4)c3F)C2=O)C(=O)N1 (stereo not drawn) [GT-05713, 3-(5-((4-(di(pyridin-2-yl)methyl)piperazin-1-yl)methyl)-4-fluoro-1-oxoisoindolin-2-yl)piperidine-2,6-dione]	B (B represents substrate protein remaining % > 50%)	500 to 1000	A (A represents 0% ≤ substrate protein remaining % ≤ 50%)	B (B represents substrate protein remaining % > 50%)	–	–	–
O=C1CCC(N2C(=O)c3ccc(CN4CC5CCC4CN5C(c4ccccc4)c4ccccc4)cc3C2=O)C(=O)N1 (stereo not drawn) [GT-05730, 5-((5-benzhydryl-2,5-diazabicyclo[2.2.2]octan-2-yl)methyl)-2-(2,6-dioxopiperidin-3-yl) isoindoline-1,3-dione]	B (B represents substrate protein remaining % > 50%)	1000 to 1900	A (A represents 0% ≤ substrate protein remaining % ≤ 50%)	B (B represents substrate protein remaining % > 50%)	–	–	–
O=C1CCC(N2Cc3cc(CN4C5CC4CN(C(c4ccccc4)c4ccccc4)C5)c(F)cc3C2=O)C(=O)N1 (stereo not drawn) [GT-05737, 3-(5-((3-benzhydryl-3,6-diazabicyclo[3.1.1]heptan-6-yl)methyl)-6-fluoro-1-oxoisoindolin-2-yl)piperidine-2,6-dione]	B (B represents substrate protein remaining % > 50%)	500 to 1000	A (A represents 0% ≤ substrate protein remaining % ≤ 50%)	B (B represents substrate protein remaining % > 50%)	–	–	–
O=C1CCC(N2Cc3cc(CN4CCCN(C(c5ccccc5)c5ccccc5)CC4)c(F)cc3C2=O)C(=O)N1 (stereo not drawn) [GT-05738, 3-(5-((4-benzhydryl-1,4-diazepan-1-yl)methyl)-6-fluoro-1-oxoisoindolin-2-yl)piperidine-2,6-dione]	B (B represents substrate protein remaining % > 50%)	1000 to 1900	A (A represents 0% ≤ substrate protein remaining % ≤ 50%)	B (B represents substrate protein remaining % > 50%)	–	–	–
O=C1CCC(N2Cc3cc(CC4CCN(C(c5ccccc5)c5ccccc5)CC4)ccc3C2=O)C(=O)N1 (stereo not drawn) [GT-05744, 3-(5-((1-benzhydrylpiperidin-4-yl)methyl)-1-oxoisoindolin-2-yl)piperidine-2,6-dione]	B (B represents substrate protein remaining % > 50%)	< 500	A (A represents 0% ≤ substrate protein remaining % ≤ 50%)	B (B represents substrate protein remaining % > 50%)	–	–	–
O=C1CCC(N2Cc3cc(C(=O)N4CCN(C(c5ccccc5)c5ccccc5)CC4)cc(F)c3C2=O)C(=O)N1 (stereo not drawn) [GT-05850, 3-(5-(4-benzhydrylpiperazine-1-carbonyl)-7-fluoro-1-oxoisoindolin-2-yl)piperidine-2,6-dione]	A (A represents 0% ≤ substrate protein remaining % ≤ 50%)	1000 to 1900	A (A represents 0% ≤ substrate protein remaining % ≤ 50%)	B (B represents substrate protein remaining % > 50%)	–	–	–

Reference: patent publication US20250320193A1, “OXOISOINDOLINYL SUBSTITUTED PIPERIDINEDIONE DERIVATIVE AND USE THEREOF” (GLUETACS THERAPEUTICS (SHANGHAI) CO., LTD., priority 2022, published 2025)
